Results from article PMC7614683, “A small molecule PI3Kα activator for cardioprotection and neuroregeneration” (Nature, 2023).

Tests used:
Test in all cases: SelectScreen LanthaScreen Binding
Details in all cases: 1000 nM
[1] = biological target: CDK2/cyclin E1 (Homo sapiens, UniProt P24941)
Summary of the method: (§1)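 A counterscreen of 133 protein and 7 lipid kinases was run with one compound concentration, 1 μM 1938, in SelectScreen Adapta, Lantha or Z-LYTE assays.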

[2] = biological target: T1, DMPK (Homo sapiens, UniProt Q09013)
T1 sequence (Q09013 1-629): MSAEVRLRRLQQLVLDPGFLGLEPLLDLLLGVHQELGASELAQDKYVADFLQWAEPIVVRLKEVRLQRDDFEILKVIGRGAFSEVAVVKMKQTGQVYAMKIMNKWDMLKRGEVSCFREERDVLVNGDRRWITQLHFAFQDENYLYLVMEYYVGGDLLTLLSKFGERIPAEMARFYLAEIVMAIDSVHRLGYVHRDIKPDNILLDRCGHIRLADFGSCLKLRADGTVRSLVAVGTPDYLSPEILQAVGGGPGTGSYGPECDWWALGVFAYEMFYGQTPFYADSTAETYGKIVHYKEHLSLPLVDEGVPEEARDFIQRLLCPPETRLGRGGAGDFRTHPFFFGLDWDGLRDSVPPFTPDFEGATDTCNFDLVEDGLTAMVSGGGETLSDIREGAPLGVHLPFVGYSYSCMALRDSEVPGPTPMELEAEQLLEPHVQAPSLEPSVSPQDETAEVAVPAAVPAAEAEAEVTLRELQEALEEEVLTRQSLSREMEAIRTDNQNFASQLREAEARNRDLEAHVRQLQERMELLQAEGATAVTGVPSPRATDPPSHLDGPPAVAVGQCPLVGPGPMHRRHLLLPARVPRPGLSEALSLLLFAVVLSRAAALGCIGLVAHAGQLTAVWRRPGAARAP
Summary of the method: as §1

[3] = biological target: AAK1 (Homo sapiens, UniProt Q2M2I8)
Sequence of AAK1 (Q2M2I8 whole entry): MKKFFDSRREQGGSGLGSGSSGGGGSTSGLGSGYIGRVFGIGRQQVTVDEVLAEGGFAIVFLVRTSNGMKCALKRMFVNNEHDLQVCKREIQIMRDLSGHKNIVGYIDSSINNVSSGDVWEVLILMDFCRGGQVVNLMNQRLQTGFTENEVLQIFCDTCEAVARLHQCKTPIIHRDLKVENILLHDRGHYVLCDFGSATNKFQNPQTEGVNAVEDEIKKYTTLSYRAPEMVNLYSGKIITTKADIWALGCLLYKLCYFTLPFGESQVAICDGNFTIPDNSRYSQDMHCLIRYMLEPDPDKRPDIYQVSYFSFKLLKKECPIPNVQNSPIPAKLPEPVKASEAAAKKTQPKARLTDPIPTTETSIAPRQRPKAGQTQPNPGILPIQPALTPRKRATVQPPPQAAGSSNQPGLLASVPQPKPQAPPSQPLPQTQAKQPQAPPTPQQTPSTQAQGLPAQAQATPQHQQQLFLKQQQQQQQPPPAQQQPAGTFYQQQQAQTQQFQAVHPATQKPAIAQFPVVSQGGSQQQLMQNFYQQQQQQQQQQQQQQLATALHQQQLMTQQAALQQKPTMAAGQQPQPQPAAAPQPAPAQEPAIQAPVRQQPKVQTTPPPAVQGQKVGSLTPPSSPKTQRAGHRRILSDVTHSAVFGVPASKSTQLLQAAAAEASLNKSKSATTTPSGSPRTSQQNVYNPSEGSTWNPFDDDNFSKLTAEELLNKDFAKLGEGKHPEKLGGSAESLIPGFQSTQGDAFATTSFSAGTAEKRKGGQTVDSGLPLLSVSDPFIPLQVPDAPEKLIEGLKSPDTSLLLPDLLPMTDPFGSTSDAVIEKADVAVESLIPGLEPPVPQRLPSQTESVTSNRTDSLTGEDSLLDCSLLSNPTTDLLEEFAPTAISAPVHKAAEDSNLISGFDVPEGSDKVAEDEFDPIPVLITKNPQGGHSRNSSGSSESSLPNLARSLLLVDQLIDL
Summary of the method: as §1

[4] = biological target: MKNK2 (MNK2) (Homo sapiens, UniProt Q9HBH9)
Sequence of MKNK2 (MNK2) (Q9HBH9 whole entry): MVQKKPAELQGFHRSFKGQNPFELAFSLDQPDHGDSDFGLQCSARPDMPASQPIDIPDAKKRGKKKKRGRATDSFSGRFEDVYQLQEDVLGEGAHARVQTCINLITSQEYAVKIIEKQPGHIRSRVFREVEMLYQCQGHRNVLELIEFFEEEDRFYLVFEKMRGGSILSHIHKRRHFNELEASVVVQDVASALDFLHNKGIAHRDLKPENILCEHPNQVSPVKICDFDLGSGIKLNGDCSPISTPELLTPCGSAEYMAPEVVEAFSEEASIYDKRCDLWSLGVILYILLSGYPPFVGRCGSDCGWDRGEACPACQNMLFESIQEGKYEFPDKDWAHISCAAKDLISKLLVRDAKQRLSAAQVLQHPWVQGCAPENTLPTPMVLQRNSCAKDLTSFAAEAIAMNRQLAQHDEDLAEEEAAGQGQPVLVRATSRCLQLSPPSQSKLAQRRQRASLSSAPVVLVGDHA
Summary of the method: as §1

For `CCN1CCN(c2ccc(Nc3cc(Nc4cccc5c4N(C(C)=O)CC5)ccn3)cc2)CC1` [Compound 1938], the “% Displacement Point 1” value [1] was 3%, the “% Displacement Point 2” value [1] was -14% and the “% Displacement mean” value [1] was -5.56%. The “% Displacement Point 1” value [2] was 4.22%, the “% Displacement Point 2” value [2] was 0.782% and the “% Displacement mean” value [2] was 2.5%. The “% Displacement Point 1” value [3] was 26%, the “% Displacement Point 2” value [3] was 25% and the “% Displacement mean” value [3] was 25%. The “% Displacement Point 1” value [4] was 20%, the “% Displacement Point 2” value [4] was 17% and the “% Displacement mean” value [4] was 18%.
